{"source": "patent US7563924B2", "about": "“9-chloro-15-deoxyprostaglandin derivatives, process for their preparation and their use as medicaments” (Schering Aktiengesellschaft, priority 2005, dated 2009)", "system": "TNFα release from activated monocytic cells", "assay": "Cytokine release assay in vitro (TNFα, ELISA)", "format": "cell-based, human", "conditions": "1 μM, 18 hours", "procedure": "Human donor monocyte-derived dendritic cells are cultured in RPMI-1640 containing 10% fetal bovine serum for six days in the presence of 10 ng/mL IL-4 and 200 ng/mL GM-CSF. The cells are activated with various activation stimuli: 10 ng/mL LPS (Sigma), 5 μg/mL recombinant human CD-40 ligand (R&D Systems), or 5 μM Human CpG-DNA (HyCult Biotechnology) in the presence of prostaglandin E2 (PGE2) (1 μM), vehicle control (DMSO) or test substances (1 μM) for 18 hours. The levels of cell culture supernatant TNFα for individual donors is measured by commercial ELISA kits."}
{"smiles": "CCCCC[C@H](O)/C=C/[C@H]1[C@H](O)CC(=O)[C@@H]1C/C=C\\CCCC(=O)O", "note": "[PGE2, Prostaglandin E2]", "values": [{"measurement": "TNFα", "setting": "CD40 ligand, Donor 3", "result": 147.9, "unit": "pg/mL"}, {"measurement": "TNFα", "setting": "CD40 ligand, Donor 4", "result": 87.0, "unit": "pg/mL"}, {"measurement": "TNFα", "setting": "CD40 ligand, Donor 6", "result": 54.2, "unit": "pg/mL"}, {"measurement": "TNFα", "setting": "CpG, Donor 1", "result": 104.5, "unit": "pg/mL"}, {"measurement": "TNFα", "setting": "CpG, Donor 3", "result": 70.0, "unit": "pg/mL"}, {"measurement": "TNFα", "setting": "CpG, Donor 6", "result": 106.2, "unit": "pg/mL"}, {"measurement": "TNFα", "setting": "LPS, Donor 4", "result": 0.0, "unit": "pg/mL"}, {"measurement": "TNFα", "setting": "LPS, Donor 6", "result": 174.8, "unit": "pg/mL"}]}
